Key:
Assay in all cases: Histone peptide microarray
Type in all cases: binding, human
PHF23 = details: PHF23; sheet "Array Heatmap"; each array performed twice, total n = 4
Summary of the method: (§1)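 GST-PHD reader, 0.5 μM, probed on 293-peptide histone array (single/combinatorial PTMs); optimized array protocol; signal = mean ± SD, n = 4.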

ING5 = details: ING5; sheet "Array Heatmap"; each array performed twice, total n = 4
Summary of the method: as §1

ING3 = details: ING3; sheet "Array Heatmap"; each array performed twice, total n = 4
Summary of the method: as §1

CHD5 (PCC) = details: CHD5 (PCC); sheet "Array Heatmap"; each array performed twice, total n = 4
Summary of the method: as §1

PHF21A = details: PHF21A; sheet "Array Heatmap"; each array performed twice, total n = 4
Summary of the method: as §1

PHF13 = details: PHF13; sheet "Array Heatmap"; each array performed twice, total n = 4
Summary of the method: as §1

DIDO1 = details: DIDO1; sheet "Array Heatmap"; each array performed twice, total n = 4
Summary of the method: as §1

BPTF (PB) = details: BPTF (PB); sheet "Array Heatmap"; each array performed twice, total n = 4
Summary of the method: as §1

MLL5 = details: MLL5; sheet "Array Heatmap"; each array performed twice, total n = 4
Summary of the method: as §1

PHF2 = details: PHF2; sheet "Array Heatmap"; each array performed twice, total n = 4
Summary of the method: as §1

TRIM66 (PB) = details: TRIM66 (PB); sheet "Array Heatmap"; each array performed twice, total n = 4
Summary of the method: as §1

BAZ2B = details: BAZ2B; sheet "Array Heatmap"; each array performed twice, total n = 4
Summary of the method: as §1

ING4 = details: ING4; sheet "Array Heatmap"; each array performed twice, total n = 4
Summary of the method: as §1

KDM5A (1) = details: KDM5A (1); sheet "Array Heatmap"; each array performed twice, total n = 4
Summary of the method: as §1

AIRE (PP) = details: AIRE (PP); sheet "Array Heatmap"; each array performed twice, total n = 4
Summary of the method: as §1

ING2 = details: ING2; sheet "Array Heatmap"; each array performed twice, total n = 4
Summary of the method: as §1

CHD5 (PPCC) = details: CHD5 (PPCC); sheet "Array Heatmap"; each array performed twice, total n = 4
Summary of the method: as §1

RAG2 = details: RAG2; sheet "Array Heatmap"; each array performed twice, total n = 4
Summary of the method: as §1

PHF8 = details: PHF8; sheet "Array Heatmap"; each array performed twice, total n = 4
Summary of the method: as §1

KDM5B (1) = details: KDM5B (1); sheet "Array Heatmap"; each array performed twice, total n = 4
Summary of the method: as §1

ING1 = details: ING1; sheet "Array Heatmap"; each array performed twice, total n = 4
Summary of the method: as §1

KDM7A = details: KDM7A; sheet "Array Heatmap"; each array performed twice, total n = 4
Summary of the method: as §1

MORC3 (CW) = details: MORC3 (CW); sheet "Array Heatmap"; each array performed twice, total n = 4
Summary of the method: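 A peptide microarray holding 293 synthetic histone peptides with individual or combinatorial modifications was probed with each GST-PHD protein at 0.5 μM. Values represent mean intensity (±SD) from four replicates.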

KDM4C (TTP) = details: KDM4C (TTP); sheet "Array Heatmap"; each array performed twice, total n = 4
Summary of the method: as §1

TAF3 = details: TAF3; sheet "Array Heatmap"; each array performed twice, total n = 4
Summary of the method: as §1

KDM5A (3) = details: KDM5A (3); sheet "Array Heatmap"; each array performed twice, total n = 4
Summary of the method: as §1

KDM5B (3) = details: KDM5B (3); sheet "Array Heatmap"; each array performed twice, total n = 4
Summary of the method: as §1

DPF2 (PPC2W2) = details: DPF2 (PPC2W2); sheet "Array Heatmap"; each array performed twice, total n = 4
Summary of the method: as §1

CHD4 (PPCC) = details: CHD4 (PPCC); sheet "Array Heatmap"; each array performed twice, total n = 4
Summary of the method: as §1

SP140L = details: SP140L; sheet "Array Heatmap"; each array performed twice, total n = 4
Summary of the method: as §1

PHRF1 (RP) = details: PHRF1 (RP); sheet "Array Heatmap"; each array performed twice, total n = 4
Summary of the method: as §1

## H4K20me3 (1-23): H4 1-23
PHF23
  Array Heatmap value (peptide array signal): 0.5181
ING5
  Array Heatmap value (peptide array signal): 0.3228
ING3
  Array Heatmap value (peptide array signal): 0.465
CHD5 (PCC)
  Array Heatmap value (peptide array signal): 0.7553
PHF21A
  Array Heatmap value (peptide array signal): 0.4514
PHF13
  Array Heatmap value (peptide array signal): 0.5943
DIDO1
  Array Heatmap value (peptide array signal): 0.6567
BPTF (PB)
  Array Heatmap value (peptide array signal): 0.3468
MLL5
  Array Heatmap value (peptide array signal): 0.5073
PHF2
  Array Heatmap value (peptide array signal): 0.4783
TRIM66 (PB)
  Array Heatmap value (peptide array signal): 0.5898
BAZ2B
  Array Heatmap value (peptide array signal): 0.4188
ING4
  Array Heatmap value (peptide array signal): 0.4304
KDM5A (1)
  Array Heatmap value (peptide array signal): 0.4224
AIRE (PP)
  Array Heatmap value (peptide array signal): 0.4048
ING2
  Array Heatmap value (peptide array signal): 0.5794
CHD5 (PPCC)
  Array Heatmap value (peptide array signal): 0.5147
RAG2
  Array Heatmap value (peptide array signal): 0.2424
PHF8
  Array Heatmap value (peptide array signal): 0.3429
KDM5B (1)
  Array Heatmap value (peptide array signal): 0.6332
ING1
  Array Heatmap value (peptide array signal): 0.5131
KDM7A
  Array Heatmap value (peptide array signal): 0.329
MORC3 (CW)
  Array Heatmap value (peptide array signal): 0.3692
KDM4C (TTP)
  Array Heatmap value (peptide array signal): 0.4703
TAF3
  Array Heatmap value (peptide array signal): 0.2546
KDM5A (3)
  Array Heatmap value (peptide array signal): 0.4449
KDM5B (3)
  Array Heatmap value (peptide array signal): 0.4599
DPF2 (PPC2W2)
  Array Heatmap value (peptide array signal): 0.6148
CHD4 (PPCC)
  Array Heatmap value (peptide array signal): 0.5546
SP140L
  Array Heatmap value (peptide array signal): 0.3602
PHRF1 (RP)
  Array Heatmap value (peptide array signal): 0.4228

— PMC6979384, “Characterization of the plant homeodomain (PHD) reader family for their histone tail interactions” (Epigenetics & Chromatin, 2020)
